From PMC10480232 (Scientific Reports, 2023)
Residues, ends and D or L forms follow the SMILES beside them. No end group written: not given here.

These compounds were tested on SARS-CoV-2. Conditions: 1 h.
With `CC[C@H](C)[C@H](NC(=O)[C@H](CCCNC(=N)N)NC(=O)[C@H](CCC(=O)O)NC(=O)CN)C(=O)N[C@@H](CCCCN)C(=O)N[C@@H](CC(N)=O)C(=O)N[C@@H](C)C(=O)N[C@@H](CCCCN)C(=O)N[C@@H](CCCCN)C(=O)N[C@@H](CCCCN)C(=O)N[C@H](C(=O)N[C@@H](Cc1c[nH]c2ccccc12)C(=O)N[C@@H](CCC(=O)O)C(=O)N[C@@H](CCCCN)C(=O)N[C@H](C(=O)N[C@@H](CCCCN)C(=O)N[C@@H](CO)C(=O)N[C@@H](Cc1ccccc1)C(=O)NCC(=O)N[C@@H](CCCNC(=N)N)C(=O)N[C@@H](CCCNC(=N)N)C(=O)N[C@H](C(=O)N[C@@H](CCCCN)C(=O)N[C@@H](CC(=O)O)C(=O)N[C@@H](Cc1ccccc1)C(=O)N[C@@H](Cc1ccccc1)C(=O)N[C@@H](CCCNC(=N)N)C(=O)N[C@@H](CCCCN)C(=O)N1CCC[C@H]1C(=O)N[C@@H](CO)C(=O)N1CCC[C@H]1C(=O)N[C@@H](CCC(=O)O)C(=O)N[C@H](C(=O)N[C@@H](CCC(=O)O)C(=O)N1CCC[C@H]1C(=O)O)C(C)C)[C@@H](C)CC)[C@@H](C)CC)C(C)C` [Bat Cathelicidin 4c] (H-GERIKNAKKKVWEKIKSFGRRIKDFFRKPSPEVEP-OH; N-terminus and C-terminus assumed) the “SARS-CoV-2 inhibition at 50 µM” value was greater than 50%. With `CC[C@H](C)[C@H](NC(=O)[C@H](CCCNC(=N)N)NC(=O)[C@@H]1CCCN1C(=O)[C@@H](NC(=O)[C@@H]1CCCN1C(=O)[C@H](Cc1ccccc1)NC(=O)[C@H](CO)NC(=O)[C@@H]1CCCN1C(=O)[C@@H]1CCCN1C(=O)[C@H](Cc1ccccc1)NC(=O)[C@H](Cc1c[nH]c2ccccc12)NC(=O)[C@@H]1CCCN1C(=O)[C@@H]1CCCN1C(=O)[C@@H]1CCCN1C(=O)[C@H](Cc1c[nH]c2ccccc12)NC(=O)[C@H](CCC(N)=O)NC(=O)[C@H](Cc1c[nH]c2ccccc12)NC(=O)[C@H](CCCNC(=N)N)NC(=O)[C@H](CC(C)C)NC(=O)[C@@H]1CCCN1C(=O)[C@@H](NC(=O)[C@@H]1CCCN1C(=O)[C@H](Cc1c[nH]c2ccccc12)NC(=O)[C@H](Cc1ccccc1)NC(=O)[C@@H]1CCCN1C(=O)[C@@H](NC(=O)[C@H](CCCNC(=N)N)NC(=O)[C@@H](N)CCCNC(=N)N)[C@@H](C)CC)[C@@H](C)CC)[C@@H](C)CC)C(=O)N[C@@H](CO)C(=O)N[C@@H](CCCNC(=N)N)C(=O)N[C@@H](CCCCN)C(=O)N[C@@H](CCCNC(=N)N)C(=O)O` [Beluga 1] (H-RRIPFWPIPLRWQWPPPWFPPSFPIPRISRKR-OH; N-terminus and C-terminus assumed) the “SARS-CoV-2 inhibition at 50 µM” value was greater than 50%. With `CC[C@H](C)[C@H](NC(=O)CNC(=O)[C@@H](NC(=O)[C@H](CCCCN)NC(=O)[C@@H](NC(=O)[C@H](CCCCN)NC(=O)[C@H](CCCCN)NC(=O)[C@H](Cc1ccccc1)NC(=O)[C@H](Cc1ccccc1)NC(=O)[C@H](CC(N)=O)NC(=O)[C@H](CCCCN)NC(=O)[C@H](Cc1ccccc1)NC(=O)[C@H](CCCNC(=N)N)NC(=O)[C@@H](N)CCCCN)[C@@H](C)CC)[C@@H](C)O)C(=O)N[C@@H](CCCCN)C(=O)N[C@@H](CCCCN)C(=O)N[C@H](C(=O)N[C@H](C(=O)N[C@@H](CCCCN)C(=O)N[C@@H](CCCCN)C(=O)N[C@H](C(=O)N[C@@H](CCCCN)C(=O)N[C@@H](CCC(=O)O)C(=O)O)[C@@H](C)O)[C@@H](C)CC)C(C)C` [NS] (H-KRFKNFFKKIKTGIKKVIKKTKE-OH; N-terminus and C-terminus assumed) the “SARS-CoV-2 inhibition at 50 µM” value was greater than 50%. With `CC[C@H](C)[C@H](NC(=O)[C@H](CO)NC(=O)[C@H](CCCCN)NC(=O)[C@H](CCCNC(=N)N)NC(=O)[C@H](CC(C)C)NC(=O)[C@H](CCCCN)NC(=O)[C@H](CCCCN)NC(=O)[C@@H](NC(=O)[C@H](CCCNC(=N)N)NC(=O)[C@H](CCCCN)NC(=O)[C@@H](N)CCCNC(=N)N)[C@@H](C)CC)C(=O)N[C@@H](CCCCN)C(=O)N[C@@H](CCCCN)C(=O)N[C@@H](CCCNC(=N)N)C(=O)N[C@@H](CC(C)C)C(=O)N[C@@H](CCCCN)C(=O)N[C@@H](CCCCN)C(=O)N[C@@H](CC(C)C)C(=O)N1CCC[C@H]1C(=O)N[C@@H](Cc1ccccc1)C(=O)N[C@@H](CCC(=O)O)C(=O)N[C@H](C(=O)N1CCC[C@H]1C(=O)N[C@@H](CC(C)C)C(=O)N[C@H](C(=O)N[C@@H](Cc1ccccc1)C(=O)N[C@@H](CO)C(=O)N[C@H](C(=O)N1CCC[C@H]1C(=O)N[C@@H](Cc1ccccc1)C(=O)O)[C@@H](C)CC)C(C)C)C(C)C` [PC1a] (H-RKRIKKLRKSIKKRLKKLPFEVPLVFSIPF-OH; N-terminus and C-terminus assumed) the “SARS-CoV-2 inhibition at 50 µM” value was greater than 50%. `CC[C@H](C)[C@H](NC(=O)[C@H](CCCCN)NC(=O)[C@H](CCCCN)NC(=O)[C@H](Cc1ccccc1)NC(=O)[C@H](Cc1ccccc1)NC(=O)[C@H](CCCCN)NC(=O)[C@H](CCCCN)NC(=O)[C@H](Cc1ccccc1)NC(=O)[C@H](CCCNC(=N)N)NC(=O)[C@@H](N)CCCCN)C(=O)N[C@@H](CCCCN)C(=O)N[C@@H](CCCCN)C(=O)N[C@@H](CO)C(=O)N[C@H](C(=O)N[C@@H](CCCCN)C(=O)N[C@@H](CCCCN)C(=O)N[C@@H](CCCNC(=N)N)C(=O)N[C@H](C(=O)N[C@@H](CCCCN)C(=O)N[C@@H](CCCCN)C(=O)N[C@@H](CC(C)C)C(=O)N[C@@H](Cc1ccccc1)C(=O)N[C@@H](CCCCN)C(=O)N[C@@H](CCCCN)C(=O)N1CCC[C@H]1C(=O)N[C@@H](CCCNC(=N)N)C(=O)N[C@H](C(=O)N[C@H](C(=O)N1CCC[C@H]1C(=O)N[C@H](C(=O)N[C@@H](CO)C(=O)N[C@H](C(=O)N1CCC[C@H]1C(=O)N[C@@H](Cc1ccccc1)C(=O)O)[C@@H](C)CC)[C@@H](C)CC)[C@@H](C)CC)C(C)C)C(C)C)C(C)C` [TS] (H-KRFKKFFKKIKKSVKKRVKKLFKKPRVIPISIPF-OH; N-terminus and C-terminus assumed) was tested, and the “SARS-CoV-2 inhibition at 50 µM” value was greater than 50%. With “IKNVELNIENLGERIKNAKKKVWEKIKSFGRRIKDFFRKPSPEVEP [Bat Cathelicidin 4]” the “SARS-CoV-2 inhibition at 50 µM” value was greater than 50%. In the case of “RTKRFRKLGNLLQKGGQKIGQKIERIGQKIKDFFSNLVPRQEGA [Pangolin 1]”, the “SARS-CoV-2 inhibition at 50 µM” value is reported as greater than 50%.

Each compound was assayed on SARS-CoV-2 (nCoV/USA_WA1/2020). Conditions: not given.
For `CC[C@H](C)[C@H](NC(=O)[C@H](CO)NC(=O)CNC(=O)[C@@H](NC(=O)[C@@H](NC(=O)[C@@H]1CCCN1C(=O)[C@@H]1CCCN1C(=O)[C@@H](NC(=O)[C@H](Cc1c[nH]c2ccccc12)NC(=O)[C@H](CCCCN)NC(=O)[C@H](CC(C)C)NC(=O)[C@@H](NC(=O)[C@H](CCCCN)NC(=O)CNC(=O)[C@@H](NC(=O)[C@H](CCCCN)NC(=O)[C@H](CCCCN)NC(=O)[C@H](CC(C)C)NC(=O)[C@H](CCCNC(=N)N)NC(=O)[C@H](CCCCN)NC(=O)[C@H](CCCNC(=N)N)NC(=O)[C@@H](NC(=O)[C@H](CCCCN)NC(=O)[C@H](CCCCN)NC(=O)[C@H](CCCNC(=N)N)NC(=O)[C@H](CC(C)C)NC(=O)[C@H](CCCNC(=N)N)NC(=O)[C@H](CCCNC(=N)N)NC(=O)[C@H](Cc1ccccc1)NC(=O)[C@H](CCCNC(=N)N)NC(=O)CNC(=O)[C@@H](N)C(C)C)[C@@H](C)O)[C@@H](C)CC)C(C)C)[C@@H](C)CC)[C@@H](C)CC)C(C)C)C(=O)O` [p5C] (H-VGRFRRLRKKTRKRLKKIGKVLKWIPPIVGSI-OH), the “anti-SARS-CoV-2 activity relative to PMAP-36R (in words)” value was “little inhibitory activity”.
